Read-outs that look alike come from different tables or passages of the source.
Columns and labels:
[1] = humans, cited from earlier work
α1β2γ2 GABAA receptors = α1β2γ2 GABAA receptors (Homo sapiens, UniProt P14867+P47870); test: Synchropatch electrophysiology, potentiation of synaptic GABAA receptors; assay type: cell-based; details: for Emax: α1β2γ2 Synaptic receptors, Synchropatch electrophysiology, read-out: Emax - efficacy: % of potentiation
α4β3δ GABAA receptors = α4β3δ GABAA receptors (Homo sapiens, UniProt P28472+P48169); test: Synchropatch electrophysiology, potentiation of extra synaptic GABAA receptors; assay type: cell-based
[2] = humans, cited from earlier work; remark: listed apart in the source
Forced swim test = Forced swim test - Depression; assay type: in vivo, rodent; details: preclinical animal model
[3] = humans, cited from earlier work; remark: listed apart in the source
[4] = dog, in vivo, 1 mg/kg
[5] = 30 mg, day 7 MAD (MTD), morning dosing

α1β2γ2 GABAA receptors, sequence (P14867 28-456): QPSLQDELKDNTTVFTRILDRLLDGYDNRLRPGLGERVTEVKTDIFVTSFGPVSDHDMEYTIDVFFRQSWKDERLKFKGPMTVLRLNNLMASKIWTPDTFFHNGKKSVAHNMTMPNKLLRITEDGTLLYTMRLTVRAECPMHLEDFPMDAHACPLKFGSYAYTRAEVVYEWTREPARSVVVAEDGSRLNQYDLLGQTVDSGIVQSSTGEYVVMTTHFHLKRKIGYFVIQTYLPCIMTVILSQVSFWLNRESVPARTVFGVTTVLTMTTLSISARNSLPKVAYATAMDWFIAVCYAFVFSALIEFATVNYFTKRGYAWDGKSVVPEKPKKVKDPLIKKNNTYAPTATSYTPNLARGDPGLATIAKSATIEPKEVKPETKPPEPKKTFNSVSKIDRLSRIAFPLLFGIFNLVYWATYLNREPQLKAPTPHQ
α1β2γ2 GABAA receptors, sequence (P47870 25-512 limits assumed): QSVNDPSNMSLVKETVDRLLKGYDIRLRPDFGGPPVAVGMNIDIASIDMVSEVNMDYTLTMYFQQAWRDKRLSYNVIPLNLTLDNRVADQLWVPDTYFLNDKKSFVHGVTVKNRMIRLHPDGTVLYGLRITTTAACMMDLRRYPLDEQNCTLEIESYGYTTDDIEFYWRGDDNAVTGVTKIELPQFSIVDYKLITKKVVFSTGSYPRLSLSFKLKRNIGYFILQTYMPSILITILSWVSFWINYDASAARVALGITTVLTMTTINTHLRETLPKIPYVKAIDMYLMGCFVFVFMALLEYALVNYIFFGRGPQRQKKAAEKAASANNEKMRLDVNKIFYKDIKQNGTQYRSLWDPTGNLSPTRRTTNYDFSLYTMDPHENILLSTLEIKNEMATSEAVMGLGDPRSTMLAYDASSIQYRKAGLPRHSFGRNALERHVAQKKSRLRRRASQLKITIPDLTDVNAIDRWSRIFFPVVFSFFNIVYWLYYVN
α1β2γ2 GABAA receptors, sequence (P18507 40-475 partner): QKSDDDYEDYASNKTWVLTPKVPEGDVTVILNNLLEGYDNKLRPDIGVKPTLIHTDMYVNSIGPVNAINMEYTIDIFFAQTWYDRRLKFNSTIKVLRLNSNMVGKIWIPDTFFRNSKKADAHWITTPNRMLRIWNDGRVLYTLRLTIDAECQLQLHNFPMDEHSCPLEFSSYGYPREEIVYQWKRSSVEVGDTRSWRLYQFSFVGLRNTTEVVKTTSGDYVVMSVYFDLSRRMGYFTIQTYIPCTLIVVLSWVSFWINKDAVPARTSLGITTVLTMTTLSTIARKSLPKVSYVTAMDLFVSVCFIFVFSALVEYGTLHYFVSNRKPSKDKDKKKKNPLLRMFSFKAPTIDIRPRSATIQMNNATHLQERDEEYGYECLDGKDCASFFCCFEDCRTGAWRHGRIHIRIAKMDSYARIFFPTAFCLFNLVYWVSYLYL
α4β3δ GABAA receptors, sequence (P48169 36-554): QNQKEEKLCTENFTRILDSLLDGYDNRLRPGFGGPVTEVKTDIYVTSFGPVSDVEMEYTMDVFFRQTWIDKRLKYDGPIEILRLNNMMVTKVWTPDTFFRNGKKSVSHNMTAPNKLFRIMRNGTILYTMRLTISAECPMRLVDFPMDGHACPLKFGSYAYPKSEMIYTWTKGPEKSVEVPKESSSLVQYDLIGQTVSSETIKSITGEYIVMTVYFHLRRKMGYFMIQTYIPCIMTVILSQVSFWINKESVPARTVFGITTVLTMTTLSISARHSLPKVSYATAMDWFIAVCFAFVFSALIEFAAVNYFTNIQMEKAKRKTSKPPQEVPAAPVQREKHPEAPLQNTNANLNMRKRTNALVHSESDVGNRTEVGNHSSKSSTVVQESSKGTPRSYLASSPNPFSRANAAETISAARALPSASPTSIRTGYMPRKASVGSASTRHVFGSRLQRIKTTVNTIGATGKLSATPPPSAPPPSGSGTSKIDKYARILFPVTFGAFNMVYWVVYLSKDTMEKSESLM
α4β3δ GABAA receptors, sequence (P28472 26-473): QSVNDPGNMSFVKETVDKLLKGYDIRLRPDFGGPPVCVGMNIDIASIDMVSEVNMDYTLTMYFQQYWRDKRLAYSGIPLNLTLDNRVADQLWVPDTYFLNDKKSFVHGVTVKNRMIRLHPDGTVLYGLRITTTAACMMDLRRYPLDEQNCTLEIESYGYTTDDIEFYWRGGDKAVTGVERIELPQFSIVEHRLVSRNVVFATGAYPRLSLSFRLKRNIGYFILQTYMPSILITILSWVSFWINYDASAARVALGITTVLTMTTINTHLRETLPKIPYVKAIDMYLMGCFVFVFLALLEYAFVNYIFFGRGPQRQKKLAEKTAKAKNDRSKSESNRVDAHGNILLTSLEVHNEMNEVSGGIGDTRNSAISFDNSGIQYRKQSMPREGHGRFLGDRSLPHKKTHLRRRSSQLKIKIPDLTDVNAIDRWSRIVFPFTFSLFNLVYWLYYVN
α4β3δ GABAA receptors, sequence (O14764 25-452 partner): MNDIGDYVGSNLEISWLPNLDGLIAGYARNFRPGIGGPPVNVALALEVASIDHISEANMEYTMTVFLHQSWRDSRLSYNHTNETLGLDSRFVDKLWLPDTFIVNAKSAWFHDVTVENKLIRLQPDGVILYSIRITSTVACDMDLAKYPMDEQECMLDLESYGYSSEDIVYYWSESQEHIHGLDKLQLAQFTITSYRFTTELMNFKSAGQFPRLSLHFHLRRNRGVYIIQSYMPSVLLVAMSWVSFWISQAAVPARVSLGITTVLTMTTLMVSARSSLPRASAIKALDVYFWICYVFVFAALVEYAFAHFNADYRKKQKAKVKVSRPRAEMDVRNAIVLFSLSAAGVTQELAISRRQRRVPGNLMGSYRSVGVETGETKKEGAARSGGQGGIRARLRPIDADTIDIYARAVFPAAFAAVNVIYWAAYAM

For C[C@@]1(O)CC[C@H]2[C@H](CC[C@@H]3[C@@H]2CC[C@]2(C)[C@@H](C(=O)Cn4cc(C#N)cn4)CC[C@@H]32)C1 [Sage-217], which “ratio of Cmax/trough on day 7” value ([1]; 30 mg daily in the evening in a fed state) is on record?
The value was 5.88.

And the AUC0_inf [1, 5]?
The AUC0_inf was 833.2 h*ng/m1.

What about the Cmax [1, 5] of the same molecule?
The Cmax was 115.2 ng/mL.

What about the Cmin [1, 5] of the same molecule?
Its Cmin is 12.46 ng/mL.

And the “Ratio (Cmax/Cmin)” value [1, 5]?
The value was 9.24.

And the “T1/2” value [1, 5]?
The value was 15.27 h.

What about the Tmax [1, 5] of the same molecule?
The Tmax was 1 h.

What about the “MTD, multiple ascending dose (MAD)” value ([1]; morning dosing) of the same molecule?
Its value is “SAGE-217 30mg”.

And the EC50 (α1β2γ2 GABAA receptors)?
Its EC50 is 189 nM.

And the Emax (α1β2γ2 GABAA receptors)?
The Emax was 1000%.

What about the EC50 (α4β3δ GABAA receptors) of the same molecule?
Its EC50 is 148 nM.

And the AUC(0-inf) ([2]; 55 mg SAD MTD)?
Its AUC(0-inf) is 1633 ng·h/mL.

What about the Cmax ([2]; 55 mg SAD MTD) of the same molecule?
Its Cmax is 149.9 ng/mL.

What about the T1/2 ([2]; 55 mg SAD MTD) of the same molecule?
The T1/2 was 17.02 h.

What about the Tmax ([2]; 55 mg SAD MTD) of the same molecule?
The Tmax was 1.24 h.

What about the “MTD, single ascending dose (SAD)” value [2] of the same molecule?
Its value is “SAGE-217 55 mg SAD MTD”.

And the “Forced swim test - Depression: doses tested, * = significantly efficacious dose” value (Forced swim test)?
The value was 1 - 3* mg/kg.

What about the “Any adverse event, %” value ([3]; 20 mg (n-188)) of the same molecule?
Its value is 50.0%.

What about the “Diarrhea, %” value ([3]; 20 mg (n-188)) of the same molecule?
The value was 5.9%.

What about the “Dizziness, %” value ([3]; 20 mg (n-188)) of the same molecule?
The value was 7.4%.

What about the “Fatigue, %” value ([3]; 20 mg (n-188)) of the same molecule?
The value was 1.6%.

And the “Headache, %” value ([3]; 20 mg (n-188))?
The value was 11.2%.

And the “Nausea, %” value ([3]; 20 mg (n-188))?
The value was 5.3%.

What about the “Sedation, %” value ([3]; 20 mg (n-188)) of the same molecule?
Its value is 5.9%.

And the “Somnolence, %” value ([3]; 20 mg (n-188))?
Its value is 5.9%.

What about the “Any adverse event, %” value ([3]; 30 mg (n-192)) of the same molecule?
The value was 54.2%.

What about the “Diarrhea, %” value ([3]; 30 mg (n-192)) of the same molecule?
The value was 6.3%.

What about the “Dizziness, %” value ([3]; 30 mg (n-192)) of the same molecule?
The value was 5.7%.

And the “Fatigue, %” value ([3]; 30 mg (n-192))?
The value was 6.8%.

What about the “Headache, %” value ([3]; 30 mg (n-192)) of the same molecule?
The value was 6.3%.

What about the “Nausea, %” value ([3]; 30 mg (n-192)) of the same molecule?
The value was 3.6%.

And the “Sedation, %” value ([3]; 30 mg (n-192))?
The value was 4.7%.

And the “Somnolence, %” value ([3]; 30 mg (n-192))?
Its value is 6.8%.

For CC(=O)[C@H]1CC[C@H]2[C@@H]3CC[C@H]4C[C@](C)(O)CC[C@]4(C)[C@H]3CC[C@]12C [Ganaxolone, ganaxolone], which EC50 (α1β2γ2 GABAA receptors) is on record?
The EC50 was 90 nM.

What about the Emax (α1β2γ2 GABAA receptors) of the same molecule?
The Emax was 745%.

And the EC50 (α4β3δ GABAA receptors)?
Its EC50 is 213 nM.

Which Cmax ([4]; iv) does the source give for C[C@@]1(O)CC[C@@]2(C)[C@@H](CC[C@@H]3[C@@H]2CC[C@]2(C)[C@@H](C(=O)Cn4cc(C#N)cn4)CC[C@@H]32)C1 [CV-10155 (30% HPbCD)] here?
Its Cmax is 1732 ng/mL.

And the T½ ([4]; iv)?
Its T½ is 13.93 h.

And the Cmax ([4]; po)?
Its Cmax is 510 ng/mL.

What about the Tmax ([4]; po) of the same molecule?
The Tmax was 0.75 h.

What about the T½ ([4]; po) of the same molecule?
The T½ was 13.62 h.

Which results are given for C[C@@]1(O)CC[C@@]2(C)[C@@H](CC[C@@H]3[C@@H]2CC[C@]2(C)[C@@H](C(=O)Cn4cc(C#N)cn4)CC[C@@H]32)C1 [CV-10155 (Labrosol)]?
Cmax ([4]; po): 266 ng/mL; Tmax ([4]; po): 0.625 h; T½ ([4]; po): 18.93 h

— patent US20220296613A1, “FOOD-INDEPENDENT DOSING OF CV-10155 TO TREAT GABAA DISORDERS” (priority 2021, published 2022)
